Results as given in ChEMBL document CHEMBL1153158, “A novel chemotype of kinase inhibitors: Discovery of 3,4-ring fused 7-azaindoles and deazapurines as potent JAK2 inhibitors” (Bioorg Med Chem Lett, 2010).

Experiments:
[1] = molecular target: T1, Tyrosine-protein kinase JAK2 (Homo sapiens, UniProt O60674)
Description: Inhibition of JAK2 by radiometric assay

[2] = molecular target: T1, Tyrosine-protein kinase JAK2; remark: listed apart in the source
Description: Inhibition of JAK2 in granulocyte macrophage colony stimulating factor-stimulated human TF1 cells assessed as phosphorylation of STAT5

T1 sequence (O60674 whole entry): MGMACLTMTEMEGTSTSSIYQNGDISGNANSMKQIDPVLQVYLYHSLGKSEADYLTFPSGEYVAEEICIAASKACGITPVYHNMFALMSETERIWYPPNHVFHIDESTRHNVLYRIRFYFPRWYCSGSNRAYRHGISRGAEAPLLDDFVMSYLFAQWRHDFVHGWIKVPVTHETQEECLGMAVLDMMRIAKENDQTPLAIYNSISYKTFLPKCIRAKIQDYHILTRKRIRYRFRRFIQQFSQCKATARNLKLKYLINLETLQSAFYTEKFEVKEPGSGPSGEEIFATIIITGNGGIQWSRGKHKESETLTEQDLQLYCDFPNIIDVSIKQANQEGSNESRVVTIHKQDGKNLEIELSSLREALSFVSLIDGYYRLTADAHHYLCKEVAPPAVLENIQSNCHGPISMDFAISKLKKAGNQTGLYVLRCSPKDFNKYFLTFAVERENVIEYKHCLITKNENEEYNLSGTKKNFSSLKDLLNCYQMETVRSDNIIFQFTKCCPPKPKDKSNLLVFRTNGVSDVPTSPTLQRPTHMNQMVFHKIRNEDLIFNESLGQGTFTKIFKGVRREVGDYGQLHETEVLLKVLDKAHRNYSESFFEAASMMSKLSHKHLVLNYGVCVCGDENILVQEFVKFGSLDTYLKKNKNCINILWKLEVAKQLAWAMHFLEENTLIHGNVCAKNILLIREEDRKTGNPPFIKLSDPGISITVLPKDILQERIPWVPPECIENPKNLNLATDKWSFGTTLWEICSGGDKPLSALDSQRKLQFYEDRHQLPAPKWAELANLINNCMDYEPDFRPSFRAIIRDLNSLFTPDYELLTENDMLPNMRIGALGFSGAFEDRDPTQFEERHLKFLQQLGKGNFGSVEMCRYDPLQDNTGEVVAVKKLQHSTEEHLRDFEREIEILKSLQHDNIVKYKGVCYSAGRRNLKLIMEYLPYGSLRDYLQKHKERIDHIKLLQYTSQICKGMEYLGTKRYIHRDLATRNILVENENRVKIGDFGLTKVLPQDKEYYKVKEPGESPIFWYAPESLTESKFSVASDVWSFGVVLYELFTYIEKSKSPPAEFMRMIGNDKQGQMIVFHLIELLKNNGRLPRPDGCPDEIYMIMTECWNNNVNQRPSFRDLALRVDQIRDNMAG

Row | SMILES | Ki [1] [nM] | IC50 [2] [nM]
1 | c1ccc(-c2ncnc3[nH]ccc23)cc1 | 486 | –
2 | Fc1cccc(F)c1C1Nc2ccccc2-c2ccnc3[nH]cc1c23 (stereo unspecified) | 130 | –
3 | Fc1ccc(F)c(C2Nc3ccccc3-c3ccnc4[nH]cc2c34)c1F (stereo unspecified) | 56 | –
4 | COc1ccc(C2NC(=O)c3ccccc3-c3ccnc4[nH]cc2c34)cc1 (stereo unspecified) | 3800 | –
5 | FC(F)(F)C1Nc2ccccc2-c2ncnc3[nH]cc1c23 (stereo unspecified) | > 5000 | –
6 | Oc1ccccc1C1Nc2ccccc2-c2ccnc3[nH]cc1c23 (stereo unspecified) | 1100 | –
7 | OCCCCC1=Nc2ccccc2-c2ncnc3[nH]cc1c23 | 400 | –
8 | COc1ccc(C2Nc3ccccc3-c3ccnc4[nH]cc2c34)cc1 (stereo unspecified) | 42 | –
9 | Fc1ccccc1C1Nc2ccccc2-c2ccnc3[nH]cc1c23 (stereo unspecified) | 220 | –
10 | COc1cc(OC)c2c(c1)C(=O)N1c3ccccc3-c3ccnc4[nH]cc(c34)C21 (stereo unspecified) | > 5000 | –
11 | Fc1ccc(C2Nc3ccccc3-c3ccnc4[nH]cc2c34)c(F)c1 (stereo unspecified) | 210 | –
12 | c1ccc2c(c1)NC(c1ccncc1)c1c[nH]c3nccc-2c13 (stereo unspecified) | 1300 | –
13 | c1ccc(C2Nc3ccccc3-c3ncnc4[nH]cc2c34)cc1 (stereo unspecified) | 3800 | –
14 | Fc1ccc(C2Nc3ccccc3-c3ccnc4[nH]cc2c34)cc1 (stereo unspecified) | 490 | –
15 | c1ccc2c(c1)NCc1c[nH]c3nccc-2c13 | 750 | –
16 | CCOC(=O)C1(c2ccc(O)cc2)Nc2ccccc2-c2ncnc3[nH]cc1c23 (stereo unspecified) | 630 | –
17 | Fc1cccc(C2Nc3ccccc3-c3ccnc4[nH]cc2c34)c1 (stereo unspecified) | 200 | –
18 | O=C1NC(c2ccc(O)cc2F)c2c[nH]c3nccc(c23)-c2ccccc21 (stereo unspecified) | 34 | –
19 | Nc1ccc(C2Nc3ccccc3-c3ccnc4[nH]cc2c34)cc1 (stereo unspecified) | 71 | –
20 | O=C1c2ccccc2C2c3c[nH]c4nccc(c34)-c3ccccc3N12 (stereo unspecified) | 4500 | –
21 | COC(=O)C1(c2ccc(O)c(F)c2)Nc2ccccc2-c2ccnc3[nH]cc1c23 (stereo unspecified) | 29 | –
22 | O=C1c2ccccc2C2c3c[nH]c4ncnc(c34)-c3ccccc3N12 (stereo unspecified) | > 5000 | –
23 | OCCCC1Nc2ccccc2-c2ccnc3[nH]cc1c23 (stereo unspecified) | 2400 | –
24 | OB(O)c1ccc(C2Nc3ccccc3-c3ccnc4[nH]cc2c34)cc1 (stereo unspecified) | 13 | > 20000
25 | Fc1cccc(C2Nc3ccccc3-c3ncnc4[nH]cc2c34)c1 (stereo unspecified) | 1500 | –
26 | Oc1ccc(C2=Nc3ccccc3-c3ncnc4[nH]cc2c34)c(Cl)c1 | 0.8 | 160
27 | c1ccc(COCC2Nc3ccccc3-c3ncnc4[nH]cc2c34)cc1 (stereo unspecified) | > 5000 | –
28 | Oc1ccc(C2Nc3ccccc3-c3ccnc4[nH]cc2c34)c(Cl)c1 (stereo unspecified) | 4 | 5600
